# In patent US6417212B1, “Modulators of peroxisome proliferator activated receptors” (Eli Lilly & Company, priority 1999, dated 2002):
# Columns and labels:
# db/db mice = test: Evaluation of glucose levels in db/db mice; type: in vivo; conditions: Mus musculus, 168 h; 30 mg/kg daily oral gavage for 7 days; 100% = glucose not different from lean values; read-out: Glucose Normalisation
# Protocol: After an acclimation period of 2 weeks, animals were individually identified by ear notches, weighed, and bled via the tail vein for determination of initial glucose levels. Blood was collected (100 μl) from unfasted animals by wrapping each mouse in a towel, cutting the tip of the tail with a scalpel, and milking blood from the tail into a heparinized capillary tube (Fisher) balanced on the edge of the bench. Sample was discharged into a heparinized microtainer with gel separator (VWR) and retained on ice. Plasma was obtained after centrifugation at 4° C. and glucose measured immediately. Remaining plasma was frozen until the completion of the experiment, when glucose and triglycerides were assayed in all samples. Animals were grouped based on initial glucose levels and body weights. Beginning the following morning, mice were dosed daily by oral gavage for 7 days using a 20 gauge, 1½″ curved disposable feeding needle. […] On day 7, mice were weighed and bled (tail vein) 3 hours after dosing. Twenty-four hours after the 7th dose (i.e., day 8), animals were bled again (tail vein). Samples obtained from conscious animals on days 0, 7 and 8 were assayed for glucose. After the 24 hour bleed, animals were weighed and dosed for the final time. Three hours after dosing on day 8, animals were anesthetized by inhalation of isoflurane and blood obtained via cardiac puncture (0.5-0.7 ml). Whole blood was transferred to serum separator tubes, chilled on ice and permitted to clot. Serum was obtained after centrifugation at 4° C. and frozen until analysis for compound levels. After sacrifice by cervical dislocation, the liver, heart and epididymal fat pads were excised and weighed.
# The absorbance of the dye produced is linearly related to the analyte in the sample. The assays were further modified in our laboratory for use in a 96 well format. […] An additional aliquot of sample, pipetted to a third well and diluted in 200 μl water, provided a blank for each specimen. […] Sample absorbances were compared to a standard curve (100-800, 10-500, and 100-400 mg/dl for glucose, triglycerides and total cholesterol, respectively). […] All samples from an experiment were assayed at the same time to minimize inter-assay variability.
# Hu apoAI transgenic mice = test: Evaluation of triglyceride and cholesterol levels in Hu apoAI transgenic mice; type: in vivo; conditions: for change in vivo at 30 mg/kg / inhibition in vivo at 30 mg/kg: Mus musculus, 168 h, 30 mg/kg daily oral gavage for 7 days; for change in vivo at 30 mg/kg: pooled sera, read-out: % HDLc Increase (serum, FPLC area under the curve, over vehicle); for inhibition in vivo at 30 mg/kg: serum 3 hours after dosing on day 7, read-out: % Triglyceride Decrease (serum, over mice receiving vehicle)
# Protocol: After an acclimation period of 2 weeks, animals were individually identified by ear notches, weighed, and assigned to groups based on body weight. Beginning the following morning, mice were dosed daily by oral gavage for 7 days using a 20 gauge, 11⁄2 curved disposable feeding needle (Popper & Sons). […] Prior to termination on day 7, mice were weighed and dosed. Three hours after dosing, animals were anesthetized by inhalation of isoflurane (2-4%; Abbott Laboratories, Chicago, Ill.) and blood obtained via cardiac puncture (0.7-1.0 ml). Whole blood was transferred to serum separator tubes (Vacutainer SST), chilled on ice, and permitted to clot. Serum was obtained after centrifugation at 4° C. and frozen until analysis for triglycerides, total cholesterol, compound levels, and serum lipoprotein profile by fast protein liquid chromatography (FPLC) coupled to an inline detection system. After sacrifice by cervical dislocation, the liver, heart and epididymal fat pads were excised and weighed. […] The percentage decrease in triglyceride serum levels in mice receiving a compound of the invention over mice receiving vehicle are reported in Table 2. […] The absorbance of the dye produced is linearly related to the analyte in the sample. The assays were further modified in our laboratory for use in a 96 well format. […] An additional aliquot of sample, pipetted to a third well and diluted in 200 μl water, provided a blank for each specimen. […] All samples from an experiment were assayed at the same time to minimize inter-assay variability. Serum lipoproteins were separated and cholesterol quantitated with an in-line detection system. […] The change in voltage corresponding to change in cholesterol concentration was plotted vs time and the area under the curve corresponding to the elution of VLDL, LDL and HDL was calculated using Perkin Elmer Turbochrome software.
# huPPARα = test: Cotransfection assay in CV-1 cells, huPPARα (GAL4 chimeric system); type: cell-based, human; conditions: luciferase reporter, relative to PPARα agonist reference molecule
# Protocol: DNA-dependent binding (ABCD binding) was carried out using SPA technology with PPAR receptors. Tritium-labeled PPARγ and PPARα agonists were used as radioligands for generating displacement curves and IC50 values with compounds of the invention. Cotransfection assays were carried out in CV-1 cells. The reporter plasmid contained an acylCoA oxidase (AOX) PPRE and TK promoter upstream of the luciferase reporter cDNA. Appropriate PPARs and RXRα were constitutively expressed using plasmids containing the CMV promoter. For PPARα and PPARβ, interference by endogenous PPARγ in CV-1 cells was an issue. In order to eliminate such interference, a GAL4 chimeric system was used in which the DNA binding domain of the transfected PPAR was replaced by that of GAL4, and the GAL4 response element was utilized in place of the AOX PPRE. Cotransfection efficacy was determined relative to PPARα agonist and […] reference molecules. Efficacies were determined by computer fit to a concentration-response curve, or in some cases at a single high concentration of agonist (10 μM). For binding or cotransfection studies with receptors other than PPARs, similar assays were carried out using appropriate ligands, receptors, reporter constructs, etc., for that particular receptor.
# These studies were carried out to evaluate the ability of compounds of the invention to bind to and/or activate various nuclear transcription factors, particularly huPPARα (“hu” indicates “human”) and huPPARγ. These studies provide in vitro data concerning efficacy and selectivity of compounds of the invention. Furthermore, binding and cotransfection data for compounds of the invention were compared with corresponding data for marketed compounds that act on either huPPARα or huPPARγ.
# [1] = fenofibrate 100 mg/kg oral, 7 days, vs vehicle
Compound,inhibition in vivo at 30 mg/kg (db/db mice) [%],change in vivo at 30 mg/kg (Hu apoAI transgenic mice) [%],inhibition in vivo at 30 mg/kg (Hu apoAI transgenic mice) [%],also measured
"Cc1oc(-c2ccc(-c3ccccc3)cc2)nc1CCOc1ccc(OC(C)(C)C(=O)O)cc1 [Example 1, 2-{4-[2-(2-Biphenyl-4-yl-5-methyloxazol-4-yl)ethoxy]phenoxy}-2-methylpropionic acid]",90,160,62.2,–
"Cc1oc(-c2cccc(-c3ccccc3)c2)nc1CCOc1ccc(OC(C)(C)C(=O)O)cc1 [Example 3, 2-{4-[2-(2-Biphenyl-3-yl-5-methyloxazol-4-yl)ethoxy]phenoxy}-2-methylpropionic acid]",93,69,51.2,–
"Cc1oc(-c2ccc(-c3cccc4ccccc34)cc2)nc1CCOc1ccc(OC(C)(C)C(=O)O)cc1 [Example 8, 2-Methyl-2-(4-{2-[5-methyl-2-(4-naphthalen-1-ylphenyl)oxazol-4-yl]ethoxy}phenoxy)propionic acid]",19,41,31.8,–
"Cc1oc(-c2ccc(-c3ccccc3C(F)(F)F)cc2)nc1CCOc1ccc(OC(C)(C)C(=O)O)cc1 [Example 12, 2-Methyl-2-(4-{2-[5-methyl-2-(2′-trifluoromethyl-biphenyl-4-yl)-oxazol-4-yl]-ethoxy}-phenoxy)propionic acid]",44,29,37.6,–
"Cc1oc(-c2cccc(-c3ccccc3)c2)nc1CCOc1cccc(OC(C)(C)C(=O)O)c1 [Example 22, 2-{3-[2-(2-Biphenyl-3-yl-5-methyloxazol-4-yl)ethoxy]phenoxy}-2-methylpropionic acid]",102,191,73.6,–
"Cc1cc(OCCc2nc(-c3ccc(-c4ccccc4)cc3)oc2C)ccc1OC(C)(C)C(=O)O [Example 24, 2-{4-[2-(2-Biphenyl-4-yl-5-methyloxazol-4-yl)-ethoxy]-2-methylphenoxy}-2-methylpropionic acid]",55,72,62.3,–
"CCCCc1cc(OC(C)(C)C(=O)O)ccc1OCCc1nc(-c2ccc(-c3ccccc3)cc2)oc1C [Example 31, 2-{4-[2-(2-Biphenyl-4-yl-5-methyloxazol-4-yl)ethoxy]-3-butylphenoxy}-2-methylpropionic acid]",89,217,66.7,–
"Cc1oc(-c2ccc(-c3ccccc3)cc2)nc1CCOc1ccc(OC(C)(C)C(=O)O)c(-c2ccccc2)c1 [Example 38, 2-{5-[2-(2-Biphenyl-4-yl-5-methyloxazol-4-yl)-ethoxy]-biphenyl-2-yloxy}-2-methyl-propionic acid]",59,34,53.3,–
"Cc1oc(-c2ccc(-c3ccccc3)cc2)nc1CCOc1ccc(OC(C)(C)C(=O)O)c2ccccc12 [Example 48, 2-{4-[2-(2-Biphenyl-4-yl-5-methyloxazol-4-yl)ethoxy]naphthalen-1-yloxy}-2-methyl propionic acid]",31,89,43.7,–
"Cc1oc(-c2cccc(-c3ccccc3)c2)nc1CCOc1ccc(OC(C)(C)C(=O)O)c2ccccc12 [Example 49, 2-{4-[2-(2-Biphenyl-3-yl-5-methyloxazol-4-yl)ethoxy]naphthalen-1-yloxy}-2-methyl propionic acid]",39,34,48.7,–
"Cc1oc(-c2ccc(-c3ccccc3)cc2)nc1CCOc1ccc(OC(C)(C)C(=O)O)c2c1CCCC2 [Example 50, 2-{4-[2-(2-Biphenyl-4-yl-5-methyloxazol-4-yl)-ethoxy]-5,6,7,8-tetrahydronaphthalen-1-yloxy}-2-methyl propionic acid]",42,95,53.9,–
"Cc1oc(-c2cccc(-c3ccccc3)c2)nc1CCOc1ccc(OC(C)(C)C(=O)O)c2c1CCCC2 [Example 51, 2-{4-[2-(2-Biphenyl-3-yl-5-methyloxazol-4-yl)-ethoxy]-5,6,7,8-tetrahydronaphthalen-1-yloxy}-2-methyl propionic acid]",31,53,41.6,–
"CCCc1cc(OCCc2nc(-c3ccc(-c4ccccc4)cc3)oc2C)ccc1OC(C)(C)C(=O)O [Example 60, 2-{4-[2-(2-Biphenyl-4-yl-5-methyloxazol-4-yl)-ethyloxy]-2-propylphenoxy}-2-methyl-propionic acid]",68,38,40.8,–
"CCCc1cc(OCCc2nc(-c3ccc(-c4ccccc4)cc3)oc2C)ccc1OCC(=O)O [Example 62, {4-[2-(2-Biphenyl-4-yl-5-methyl-oxazol-4-yl)-ethoxy]-2-propyl-phenoxy}-acetic acid]",36,56,45.5,–
"Cc1c(C)c2c(c(C)c1O)CCC(C)(COc1ccc(CC3SC(=O)NC3=O)cc1)O2 (stereo not shown) [Troglitazone, reference compound]",–,–,–,huPPARα CTF Efficacy (huPPARα): 0%
"CC(C)OC(=O)C(C)(C)Oc1ccc(C(=O)c2ccc(Cl)cc2)cc1 [fenofibrate, reference compound]",–,–,–,"mean elevation of total serum cholesterol (Hu apoAI transgenic mice; [1]): 41%; mean percent increase of HDLc (Hu apoAI transgenic mice; [1]): 48%; mean reduction of triglycerides (Hu apoAI transgenic mice; [1]): 37%; HDLc peak area (FPLC) (Hu apoAI transgenic mice; fenofibrate 100 mg/kg oral, 7 days, vehicle 47-62 v-sec): 68-96 v-sec; average triglycerides values (Hu apoAI transgenic mice; fenofibrate 100 mg/kg oral, 7 days, vehicle 60-80 mg/dl): 33 to 58 mg/dL; average total serum cholesterol values (Hu apoAI transgenic mice; fenofibrate 100 mg/kg oral, 7 days, vehicle 148-180 mg/dl): 190 to 280 mg/dL"
